Measurements as given in patent publication US12329801B2, “Regenerative polypeptides and uses thereof” (JUVENA THERAPEUTICS, INC., priority 2021, dated 2025).

Legend:
[1] = test system: Aged human myoblasts; assay: Myogenic transcription factor expression in aged human myoblasts (qPCR); type: cell-based
Description: RNA was isolated from each well (RNeasy Mini Kit, Qiagen) and cDNA was obtained by reverse-transcription (High Capacity Reverse Transcription Kit, Thermo Fisher Scientific). Real-time quantitative PCR was performed using QuantStudio3 (Thermo Fisher).
Aged human myoblasts were cultured in well plates. […] Cells that had been cultured with IGF2 had increases in levels of MYOG at 48 hours and levels of MYOD at 72 hours.

[2] = Backbone cleavage on expression from CHO cells (reducing SDS-PAGE, Western blot); set-up: species or system Chinese Hamster; details: expressed from CHO cells
Description: The amino acid backbone of IGF2 is cleaved when expressed from Chinese Hamster Ovary (CHO) cells (FIG. 13A) as visualized on a reducing SDS-PAGE and Western blot (FIG. 13B). The CHO cells were grown in a 37° C. incubator with a humidified atmosphere of 8% CO2 on an orbital shaker platform with a shaking speed 125 rpm to reach 4E6 cells/mL, followed by transferring the calculated volume of cells to fresh, pre-warmed ExpiCHO™ Expression Medium in a shake flask. Incubated flasks in a 37° C. incubator with a humidified atmosphere of 8% CO2 shook on an orbital shaker platform until cultures reached a density of 4×106−6×10^6 viable cells/mL.
After mixing each plasmid with 100 ul SFM in a microtube; ExpiFectamine (8 ul ×10.5=84 ul) with OptiPro medium (92 ul×10.5=966 ul) in a microtube; adding 100 ul into the plasmid tube and mix by pipetting; After 5 min, add 200 ul into each well and swirl to mix. mix enhancer (15×10.2=153 ul) with feed ([…]), add 615 ul into each well. Culture supernatant collected at intervals was spun down at low speed and high speed, then frozen at −80 deg. Aliquots were analyzed for protein concentration by nanodrop, and then an equivalent amount loaded onto 4-12% SDS-PAGE gels for molecular weight distribution analysis. […]

[3] = test system: human myoblast cells; assay: Human myoblast differentiation (% area eMyHC) with IGF2 and/or sodium butyrate; type: cell-based
Description: Fresh media was added every 24 hours. […], cells were pulsed for 2-5 hours with EdU (30 uM), ethanol fixed, stained with Hoescht 3342, immunostained for proliferation—as measured by the percent of cells staining positive for EdU (% EdU)-, and immunostained for differentiation—as measured by the increase in cellular area staining positive for embryonic myosin heavy chain (% eMyHC) relative to the negative controls, which received media and vehicle only. The total area of eMyHc positive cells was analyzed, and treated cells were compared to cells treated with the vehicle alone. […] Significance was determined by a p-value less than 0.05 by the one-way ANOVA Tukey Honest Significant Difference test.
Myoblast were cultured 96 h in the presence of IGF2 at indicated dose. Fresh media and IGF2 was added every 24 h.
Fresh media was added every 24 hours.
Significance was determined by a p-value less than 0.05 by the one-way ANOVA Tukey Honest Significant Difference test.

[4] = test system: DM1 human myoblast; assay: Myogenic gene expression fold change in DM1 human myoblast; type: cell-based; details: 48 h; BMP7 50 ng/mL, Butyrate 100 nM, IGF2 200 ng/mL
Description: Myoblasts were cultured 48 h in the presence of factors (BMP7 50 ng/mL, Butyrate 100 nM, IGF2 200 ng/mL).
Myoblasts were cultured 96 h in the presence of factors (IGF2 200 ng/ml). […] Myoblasts were cultured 48 h in the presence of factors (IGF2 200 ng/mL).
(§1) IGF2 was tested individually for its ability to promote proliferation and/or fusion of human muscle progenitor cells from an individual with myotonic dystrophy type 1 (hMD)—a muscular dystrophy caused by mutations in the DMPK1 gene. The effect of IGF2 on myogenic activity was assayed in biological triplicate across a range of concentrations centered around expected physiological levels by adding each factor to hMD myoblasts for 72 hours with daily media changes (DMEM +2% horse serum) and a second pulse of factors at the first media change. After 72 or 96 hours, cells were pulsed for 2-5 hours with EdU (30 uM), ethanol fixed, stained with Hoescht 3342, immunostained for proliferation—as measured by the percent of cells staining positive for EdU (% EdU)-, and immunostained for differentiation—as measured by the increase in cellular area staining positive for embryonic myosin heavy chain (% eMyHC) relative to the negative controls, which received media and vehicle only. Wells were imaged on a Keyence BZ-100 at 4×, the images quantified in Cell Profiler, and the statistics were computed in R. Additionally, RNA was extracted from myoblast and select transcript abundances quantified by qPCR.

[5] = test system: DM1 human myoblast cells; assay: Proliferation (EdU) and fusion (% eMyHC area) in DM1 human myoblast; type: cell-based; details: 72 h for proliferation, fold change vs vehicle
Description: FIG. 7A Bar graph of % EdU+ human myoblast (person) and FIG. 7B % area MyHC in response to IGF2. Myoblast were cultured 72 h for proliferation and 96 h for fusion in the presence of indicated factor. Mean∓S.D. Mean∓SD. Significant p-values (EdU: Vehicle˜IGF2: 6.8E-3, % eMyHC Area: Vehicle˜IGF2: 1.9E-4) (*p<0.05 by Students Two-Tailed T-test, n=3-6).
as §1, with “The effect of IGF2 on myogenic activity was assayed in biological triplicate across a range of concentrations centered around expected physiological levels by adding each factor to hMD myoblasts for 72 hours with daily media changes (DMEM +2% horse serum) and a second pulse of factors at the first media change.” left out, “qPCR. […]” for “qPCR.”

Substance: IGF2: Human IGF2 amino acid sequence, SEQ ID NO: 29
- MYF5 fold change ([1]; 48 h): 0.409
- MYOD1 fold change ([1]; 48 h): 0.519
- MYOG fold change ([1]; 48 h): 5.756
- MYF5 fold change ([1]; 72 h): 0.708
- MYOD1 fold change ([1]; 72 h): 5.723
- MYOG fold change ([1]; 72 h): 0.018
- cleavage of the IGF2 amino acid backbone [2]: is cleaved
- % eMyHC ([3]; IGF2 0.015 ug/mL alone, 96 h (FIG. 3B/3C)): 10.843%
- % eMyHC ([3]; IGF2 0.03 ug/mL alone, 48 hours (FIG. 4A/4B)): 16.620%
- MYF5 expression fold change compared to FM (vehicle) [4]: 0.730
- MYOD1 expression fold change compared to FM (vehicle) [4]: 1.252
- MYOG expression fold change compared to FM (vehicle) [4]: 2.972
- EdU FC [5]: 2.18
